The text below walks through data of paper PMC7018746, “An efficient and targeted synthetic approach towards new highly substituted 6-amino-pyrazolo[1,5-a]pyrimidines with α-glucosidase inhibitory activity” (Scientific Reports, 2020).

The target of data set [1] is T1, α-glucosidase (Saccharomyces cerevisiae, EC.3.2.1.20) (Saccharomyces cerevisiae, UniProt P53341).
T1 construct: purchased Sigma-Aldrich
Briefly: biochemical. As to conditions: mean ± SD, at least three experiments, read-out: IC50 (µM), in vitro α-glucosidase inhibitory activity. The format is biochemical. As to the method: α-Glucosidase enzyme (EC3.2.1.20, Saccharomyces cerevisiae, 20 U/mg) and substrate (p-nitrophenyl glucopyranoside) were purchased from Sigma-Aldrich. […] Finally, the change in absorbance was measured at 405 nm by using spectrophotometer (Gen5, Power wave xs2, BioTek, America). DMSO (10% final concentration) and acarbose were used respectively as control and standard drug. The percentage of enzyme inhibitionwas calculated and IC50 values were obtained from non-linear regression curve using the Logit method.

SMILES strings stand for the structures. Where two headings read alike, the source gives them in different places.

T1 sequence (P53341 whole entry): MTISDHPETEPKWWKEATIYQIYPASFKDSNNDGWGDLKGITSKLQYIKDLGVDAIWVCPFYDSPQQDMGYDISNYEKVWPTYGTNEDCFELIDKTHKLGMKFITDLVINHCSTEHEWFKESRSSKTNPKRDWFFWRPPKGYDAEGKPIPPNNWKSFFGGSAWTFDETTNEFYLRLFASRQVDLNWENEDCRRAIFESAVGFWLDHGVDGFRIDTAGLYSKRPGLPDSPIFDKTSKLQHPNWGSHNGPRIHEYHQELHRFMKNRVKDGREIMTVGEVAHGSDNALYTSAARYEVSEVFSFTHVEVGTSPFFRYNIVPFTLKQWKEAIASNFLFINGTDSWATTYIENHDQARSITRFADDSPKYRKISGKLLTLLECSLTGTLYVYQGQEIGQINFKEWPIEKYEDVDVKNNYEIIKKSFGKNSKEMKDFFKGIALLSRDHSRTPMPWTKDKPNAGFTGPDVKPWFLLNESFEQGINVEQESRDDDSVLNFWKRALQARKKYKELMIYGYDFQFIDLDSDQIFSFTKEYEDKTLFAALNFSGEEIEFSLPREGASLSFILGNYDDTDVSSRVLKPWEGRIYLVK

What is called IC50 is the concentration that gives 50% inhibition. Usually melting point stands for the temperature, or range, at which the solid turns liquid. For `Nc1c(-c2ccc(Cl)cc2)nc2c(C(=O)Nc3ccc(Cl)cc3)c(Nc3ccccc3)nn2c1-c1cccs1` [3z, 6-Amino-N,5-bis(4-chlorophenyl)-2-(phenylamino)-7-(thiophen-2-yl)pyrazolo[1,5-a]pyrimidine-3-carboxamide], the melting point lay within 274 to 276 °C. Moreover, the half-inhibitory concentration (IC50) in data set [1] (Table 1, compounds 3a-z) worked out at 19.3 ± 0.9 µM.

Compound `Nc1c(-c2ccc(Cl)cc2)nc2c(C(=O)Nc3ccc(Cl)cc3)c(Nc3ccccc3)nn2c1-c1ccccc1` [3x, 6-Amino-N,5-bis(4-chlorophenyl)-7-phenyl-2-(phenylamino)pyrazolo[1,5-a]pyrimidine-3-carboxamide] had a melting point of 255 to 257 °C. Besides, in data set [1] (Table 1, compounds 3a-z), the IC50 came out at 80.3 ± 5.2 µM.

The compound `CCOC(=O)c1c(-c2ccccc2)nn2c(-c3ccc(Cl)cc3)c(N)c(-c3ccc(C)cc3)nc12` [3ac, Ethyl 6-amino-7-(4-chlorophenyl)-2-phenyl-5-p-tolylpyrazolo[1,5-a]pyrimidine-3-carboxylate] showed a melting point of 221 to 223 °C. For the same compound, in data set [1] (Table 2, compounds 3aa-ai), the IC50 was determined as 185 ± 6 µM.

`Nc1c(-c2ccc(Cl)cc2)nc2c(C(=O)Nc3ccccc3)c(Nc3ccccc3)nn2c1-c1ccccc1` [3g, 6-Amino-5-(4-chlorophenyl)-N,7-diphenyl-2-(phenylamino)pyrazolo[1,5-a]pyrimidine-3-carboxamide] came in with a melting point of 285 to 286 °C. Also, in data set [1] (Table 1, compounds 3a-z), the IC50 stood at 75.6 ± 5 µM.

For the compound `CCOC(=O)c1c(-c2ccccc2)nn2c(-c3ccc(Cl)cc3)c(N)c(-c3ccc(Cl)cc3)nc12` [3ah, Ethyl 6-amino-5,7-bis(4-chlorophenyl)-2-phenylpyrazolo[1,5-a]pyrimidine-3-carboxylate], the melting point fell in the range of 245 to 246 °C. Besides, the IC50 in data set [1] (Table 2, compounds 3aa-ai) turned out to be 162 ± 3.2 µM.

The compound `COc1ccc(NC(=O)c2c(Nc3ccccc3)nn3c(-c4ccc(Cl)cc4)c(N)c(-c4ccccc4)nc23)cc1` [3j, 6-Amino-7-(4-chlorophenyl)-N-(4-methoxyphenyl)-5-phenyl-2-(phenylamino)pyrazolo[1,5-a]pyrimidine-3-carboxamide] yielded a melting point of 217 to 218 °C. The IC50 in data set [1] (Table 1, compounds 3a-z) is 30.3 ± 2.1 µM.

With `CCOC(=O)c1c(-c2ccccc2)nn2c(-c3ccc(Br)cc3)c(N)c(-c3ccccc3)nc12` [3ab, Ethyl 6-amino-7-(4-bromophenyl)-2,5-diphenylpyrazolo[1,5-a]pyrimidine-3-carboxylate], the melting point fell in the range of 201 to 202 °C. The IC50 in data set [1] (Table 2, compounds 3aa-ai) worked out at 150 ± 4 µM.

Consider `Nc1c(-c2ccc(Cl)cc2)nc2c(C(=O)Nc3ccccc3)c(Nc3ccccc3)nn2c1-c1ccc(Cl)cc1` [3h, 6-Amino-5,7-bis(4-chlorophenyl)-N-phenyl-2-(phenylamino)pyrazolo[1,5-a]pyrimidine-3-carboxamide], for which the melting point is 281 to 283 °C. The IC50 in data set [1] (Table 1, compounds 3a-z) was 25.7 ± 1.1 µM.

Turning to `COc1ccc(NC(=O)c2c(Nc3ccccc3)nn3c(-c4ccccc4)c(N)c(-c4ccc(OC)cc4)nc23)cc1` [3n, 6-Amino-N,5-bis(4-methoxyphenyl)-7-phenyl-2-(phenylamino)pyrazolo[1,5-a]pyrimidine-3-carboxamide], the melting point fell in the range of 248 to 250 °C. In addition, the IC50 in data set [1] (Table 1, compounds 3a-z) is 42.6 ± 1.1 µM.

Turning to `COc1ccc(NC(=O)c2c(Nc3ccccc3)nn3c(-c4ccc(Cl)cc4)c(N)c(-c4ccc(Cl)cc4)nc23)cc1` [3q, 6-Amino-5,7-bis(4-chlorophenyl)-N-(4-methoxyphenyl)-2-(phenylamino)pyrazolo[1,5-a]pyrimidine-3-carboxamide], the melting point lay in the range of 245 to 246 °C. For the same compound, in data set [1] (Table 1, compounds 3a-z), the half-inhibitory concentration (IC50) was 36.5 ± 2.5 µM.

`Nc1c(-c2ccccc2)nc2c(C(=O)Nc3ccccc3)c(Nc3ccccc3)nn2c1-c1ccc(Br)cc1` [3b, 6-Amino-7-(4-bromophenyl)-N,5-diphenyl-2-(phenylamino)pyrazolo[1,5-a]pyrimidine-3-carboxamide]: the melting point fell in the range of 235 to 237 °C. Moreover, the IC50 in data set [1] (Table 1, compounds 3a-z) is 40 ± 2.9 µM.

Take `COc1ccc(NC(=O)c2c(Nc3ccccc3)nn3c(-c4ccccc4)c(N)c(-c4ccc(Cl)cc4)nc23)cc1` [3p, 6-Amino-5-(4-chlorophenyl)-N-(4-methoxyphenyl)-7-phenyl-2-(phenylamino)pyrazolo[1,5-a]pyrimidine-3-carboxamide]: the melting point was 245 to 246 °C. In addition, in data set [1] (Table 1, compounds 3a-z), the IC50 was found to be 33.2 ± 2.1 µM.

In the case of `Nc1c(-c2ccccc2)nc2c(C(=O)Nc3ccc(Cl)cc3)c(Nc3ccccc3)nn2c1-c1ccc(Br)cc1` [3t, 6-Amino-7-(4-bromophenyl)-N-(4-chlorophenyl)-5-phenyl-2-(phenylamino)pyrazolo[1,5-a]pyrimidine-3-carboxamide], the melting point is 294 to 296 °C. The IC50 in data set [1] (Table 1, compounds 3a-z) was found to be 60 ± 4 µM.

`CCOC(=O)c1c(-c2ccccc2)nn2c(-c3ccccc3)c(N)c(-c3ccc(Cl)cc3)nc12` [3ag, Ethyl 6-amino-5-(4-chlorophenyl)-2,7-diphenylpyrazolo[1,5-a]pyrimidine-3-carboxylate] had a melting point of 238 to 239 °C. Moreover, the IC50 in data set [1] (Table 2, compounds 3aa-ai) was 201 ± 4.2 µM.

On to `Nc1c(-c2ccccc2)nc2c(C(=O)Nc3ccc(Cl)cc3)c(Nc3ccccc3)nn2c1-c1ccc(Cl)cc1` [3s, 6-Amino-N,7-bis(4-chlorophenyl)-5-phenyl-2-(phenylamino)pyrazolo[1,5-a]pyrimidine-3-carboxamide], for which the melting point fell in the range of 274 to 275 °C. In data set [1] (Table 1, compounds 3a-z), the IC50 was determined as 42.3 ± 3.1 µM.

`Cc1ccc(-c2nc3c(C(=O)Nc4ccccc4)c(Nc4ccccc4)nn3c(-c3ccc(Cl)cc3)c2N)cc1` [3c, 6-Amino-7-(4-chlorophenyl)-N-phenyl-2-(phenylamino)-5-p-tolylpyrazolo[1,5-a]pyrimidine-3-carboxamide] came in with a melting point of 232 to 233 °C. In addition, the IC50 in data set [1] (Table 1, compounds 3a-z) turned out to be 44.5 ± 3.1 µM.

Compound `Cc1ccc(-c2nc3c(C(=O)Nc4ccc(Cl)cc4)c(Nc4ccccc4)nn3c(-c3ccc(Cl)cc3)c2N)cc1` [3u, 6-Amino-N,7-bis(4-chlorophenyl)-2-(phenylamino)-5-p-tolylpyrazolo[1,5-a]pyrimidine-3-carboxamide] showed a melting point of 281 to 282 °C. In data set [1] (Table 1, compounds 3a-z), the 50% inhibitory concentration (IC50) came out at 55.6 ± 3.6 µM.

For the compound `Nc1c(-c2ccc(Cl)cc2)nc2c(C(=O)Nc3ccccc3)c(Nc3ccccc3)nn2c1-c1cccs1` [3i, 6-Amino-5-(4-chlorophenyl)-N-phenyl-2-(phenylamino)-7-(thiophen-2-yl)pyrazolo[1,5-a]pyrimidine-3-carboxamide], the melting point lay in the range of 270 to 271 °C. In addition, in data set [1] (Table 1, compounds 3a-z), the IC50 was 28.1 ± 1.2 µM.

`COc1ccc(NC(=O)c2c(Nc3ccccc3)nn3c(-c4ccc(Br)cc4)c(N)c(-c4ccccc4)nc23)cc1` [3k, 6-Amino-7-(4-bromophenyl)-N-(4-methoxyphenyl)-5-phenyl-2-(phenylamino)pyrazolo[1,5-a]pyrimidine-3-carboxamide] gave a melting point of 256 to 258 °C. Also, in data set [1] (Table 1, compounds 3a-z), the IC50 stood at 57.4 ± 3.8 µM.

`COc1ccc(NC(=O)c2c(Nc3ccccc3)nn3c(-c4cccs4)c(N)c(-c4ccc(Cl)cc4)nc23)cc1` [3r, 6-Amino-5-(4-chlorophenyl)-N-(4-methoxyphenyl)-2-(phenylamino)-7-(thiophen-2-yl)pyrazolo[1,5-a]pyrimidine-3-carboxamide]: the melting point lay in the range of 240 to 242 °C. In data set [1] (Table 1, compounds 3a-z), the IC50 turned out to be 18.4 ± 0.6 µM.

With `CCOC(=O)c1c(-c2ccccc2)nn2c(-c3cccs3)c(N)c(-c3ccc(Cl)cc3)nc12` [3ai, Ethyl 6-amino-5-(4-chlorophenyl)-2-phenyl-7-(thiophen-2-yl)pyrazolo[1,5-a]pyrimidine-3-carboxylate], the melting point was in the range of 192 to 193 °C. In addition, in data set [1] (Table 2, compounds 3aa-ai), the IC50 amounted to 153 ± 5 µM.

`CCOC(=O)c1c(-c2ccccc2)nn2c(-c3ccc(Cl)cc3)c(N)c(-c3ccccc3)nc12` [3aa, Ethyl 6-amino-7-(4-chlorophenyl)-2,5-diphenylpyrazolo[1,5-a]pyrimidine-3-carboxylate]: the melting point lay within 180 to 182 °C. In addition, the IC50 in data set [1] (Table 2, compounds 3aa-ai) amounted to 94 ± 3.6 µM.

Compound `COc1ccc(NC(=O)c2c(Nc3ccccc3)nn3c(-c4ccc(Cl)cc4)c(N)c(-c4ccc(C)cc4)nc23)cc1` [3l, 6-Amino-7-(4-chlorophenyl)-N-(4-methoxyphenyl)-2-(phenylamino)-5-p-tolylpyrazolo[1,5-a]pyrimidine-3-carboxamide] showed a melting point of 263 to 265 °C. For the same compound, the IC50 in data set [1] (Table 1, compounds 3a-z) worked out at 49.3 ± 3.3 µM.

On to `Nc1c(-c2ccc(Cl)cc2)nc2c(C(=O)Nc3ccc(Cl)cc3)c(Nc3ccccc3)nn2c1-c1ccc(Cl)cc1` [3y, 6-Amino-N,5,7-tris(4-chlorophenyl)-2-(phenylamino)pyrazolo[1,5-a]pyrimidine-3-carboxamide], for which the melting point was 268 to 270 °C. In addition, in data set [1] (Table 1, compounds 3a-z), the IC50 came to 38.2 ± 2.8 µM.

For `COc1ccc(NC(=O)c2c(Nc3ccccc3)nn3c(-c4ccc(Cl)cc4)c(N)c(-c4ccc(OC)cc4)nc23)cc1` [3o, 6-Amino-7-(4-chlorophenyl)-N,5-bis(4-methoxyphenyl)-2-(phenylamino)pyrazolo[1,5-a]pyrimidine-3-carboxamide], the melting point fell in the range of 268 to 269 °C. The IC50 in data set [1] (Table 1, compounds 3a-z) came out at 56.2 ± 3.2 µM.

Compound `COc1ccc(-c2nc3c(C(=O)Nc4ccc(Cl)cc4)c(Nc4ccccc4)nn3c(-c3ccccc3)c2N)cc1` [3w, 6-Amino-N-(4-chlorophenyl)-5-(4-methoxyphenyl)-7-phenyl-2-(phenylamino)pyrazolo[1,5-a]pyrimidine-3-carboxamide] returned a melting point of 255 to 257 °C. In addition, the IC50 in data set [1] (Table 1, compounds 3a-z) was found to be 53.7 ± 3.4 µM.

In turn, `COc1ccc(-c2nc3c(C(=O)Nc4ccccc4)c(Nc4ccccc4)nn3c(-c3ccc(Cl)cc3)c2N)cc1` [3f, 6-Amino-7-(4-chlorophenyl)-5-(4-methoxyphenyl)-N-phenyl-2-(phenylamino)pyrazolo[1,5-a]pyrimidine-3-carboxamide] came in with a melting point of 237 to 238 °C. The IC50 in data set [1] (Table 1, compounds 3a-z) is 85.7 ± 5.3 µM.
